Series [1] concerns vesicular stomatitis virus (VSV). The format is cell-based.
In series [2] the target is RBD of EBOV-GP (RBD-Fc fusion protein) (Zaire ebolavirus, UniProt Q05320). The series is described as follows: biochemical. The format is binding.
For series [3], the system named is amphitropic murine leukemia virus (A-MLV). The format is cell-based.
The next series relates to pseudotyped virus EBOV. Put plainly: microbe, parasite or virus in culture. The series is classed as cell-based, Zaire ebolavirus. To be noted: for IC50: Zaire ebolavirus, TZM-bl, read-out: IC50 (µM) Pseudovirus, EBOV.
A further series can be described thus: in vitro. As to conditions: human.
The test system of the next series is MARV (Angola, IRF0202). Put plainly: cells. The format is cell-based, Marburg virus. To be noted: Homo sapiens, Huh-7, 24 h, read-out: IC50 (µM) Infectious Virus, MARV.
The next series deals with HIV strain, HXBc2 (HX). The format is cell-based, Human immunodeficiency virus.
Series [4] concerns Wild-type EBOV (Makona C07 strain, IRF0192). Put plainly: microbe, parasite or virus in culture. The format is cell-based, Ebola virus. To be noted: Zaire ebolavirus, Huh-7, 48 h, read-out: IC50 (µM) Infectious Virus, EBOV.
The test system of the next series is pseudotyped MARV. The series is described as follows: microbe, parasite or virus in culture. The series is classed as cell-based, Marburg marburgvirus. To be noted: for IC50: Orthomarburgvirus marburgense, TZM-bl, read-out: IC50 (µM) Pseudovirus, MARV.

Where only a bound is given, the exact number is not on record here.

Chain of RBD of EBOV-GP (RBD-Fc fusion protein) (Q05320 54-201 limits assumed): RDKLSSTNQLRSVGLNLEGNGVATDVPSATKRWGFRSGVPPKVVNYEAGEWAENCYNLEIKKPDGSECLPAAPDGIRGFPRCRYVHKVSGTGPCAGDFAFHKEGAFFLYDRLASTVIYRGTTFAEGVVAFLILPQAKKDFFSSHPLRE

By Kd is commonly meant the equilibrium constant for the complex coming apart. As usually defined, the IC50 is the concentration at which inhibition is half-maximal. As for `C[C@@]12NC(=O)[C@H](Cc3c1[nH]c1ccccc31)n1c2nc2ccccc2c1=O` [Compound W12, Fumiquinazoline J], the “Neutralization of pseudotyped VSV (specificity)” value in series [1] is listed as “neither of them did so”. This compound also gave a Kd in [2] of 91.4 µM. Further, the “Neutralization of pseudotyped A-MLV (specificity)” value in series [3] is “neither of them did so”. In the series on pseudotyped virus EBOV, the “Activity in screening against pseudotyped EBOV” value was “modest activities”; the “Neutralization of pseudotyped EBOV in specificity test” value is recorded as “neutralizing”; the “SI, Selectivity index (CC50/IC50), EBOV” value stood at 15; the IC50 was around 1.68 µM. Moreover, in the series “in vitro”, the CC50 was found to be 24.8 µM. Also, the IC50 in the series on MARV (Angola, IRF0202) came to 64.5 µM. Also, the “Neutralization of pseudotyped HIV (specificity)” value in the series with HIV strain, HXBc2 (HX) is “neither of them did so”. For the same compound, in series [4], the 50% inhibitory concentration (IC50) was found to be 15.3 µM. Also, in the series with pseudotyped MARV, the “Activity in screening against pseudotyped MARV” value is given as “modest activities”; the “Neutralization of pseudotyped MARV in specificity test” value was “neutralizing”; the “SI, Selectivity index (CC50/IC50), MARV” value amounted to 26; the half-maximal inhibitory concentration (IC50) turned out to be 0.96 µM.
As for `CC(C)=CCC[C@]1(C)[C@@H](O)CC[C@@]2(C)[C@H]1CC[C@H]1Cc3c([nH]c4ccccc34)[C@@]12C` [Compound W26, Emindole SB], in [1], the “Neutralization of pseudotyped VSV (specificity)” value is on record as “neither of them did so”. Further, the “Neutralization of pseudotyped A-MLV (specificity)” value in series [3] is “neither of them did so”. Besides, in the series with pseudotyped virus EBOV, the “Activity in screening against pseudotyped EBOV” value is reported as “modest activities”; the “Neutralization of pseudotyped EBOV in specificity test” value is on record as “neutralizing”; the “SI, Selectivity index (CC50/IC50), EBOV” value worked out at 7; the IC50 was around 3.17 µM. The compound also showed a CC50 in “in vitro” of 20.9 µM. Further, in the series on MARV (Angola, IRF0202), the IC50 is 95.7 µM. In addition, the “Neutralization of pseudotyped HIV (specificity)” value in the series with HIV strain, HXBc2 (HX) is reported as “neither of them did so”. In [4], the IC50 was 49.8 µM. Besides, in the series with pseudotyped MARV, the “Activity in screening against pseudotyped MARV” value is on record as “modest activities”; the “Neutralization of pseudotyped MARV in specificity test” value was “neutralizing”; the “SI, Selectivity index (CC50/IC50), MARV” value is 10; the IC50 was found to be 2.15 µM.
With `CC(=O)OCC(=O)OC1CCC2(C)C(CCC3c4c([nH]c5ccccc45)CC32C)C1(C)CCC=C(C)C` (centres unmarked) [Compound W27, Fusaindoterpene B], in the series on pseudotyped virus EBOV, the “Activity in screening against pseudotyped EBOV” value was “modest activities”; the “SI, Selectivity index (CC50/IC50), EBOV” value stood at 7; the IC50 was around 2.82 µM. In addition, the CC50 in “in vitro” came out at 16.3 µM. In the series with MARV (Angola, IRF0202), the half-maximal inhibitory concentration (IC50) turned out to be 83.3 µM. Moreover, the IC50 in series [4] stood at 33 µM. Moreover, in the series on pseudotyped MARV, the “Activity in screening against pseudotyped MARV” value was “modest activities”; the “SI, Selectivity index (CC50/IC50), MARV” value is given as 6; the IC50 is 2.63 µM.
In the case of `CC(=O)N[C@H](Cc1c[nH]c2ccccc12)C(=O)O` [N-Ac-D-tryptophan, N-Acetyl-D-Tryptophan, reference compound], in the series on pseudotyped virus EBOV, the “Activity in screening against pseudotyped EBOV” value is listed as “some activity” and the IC50 was above 48 µM. For the same compound, the CC50 in “in vitro” was above 60 µM.
Take `CC(=O)N[C@@H](Cc1c[nH]c2ccccc12)C(=O)O` [N-Ac-L-tryptophan, N-Acetyl-L-Tryptophan, reference compound]: in the series on pseudotyped virus EBOV, the “Activity in screening against pseudotyped EBOV” value is “some activity” and the IC50 is above 48 µM. The CC50 in “in vitro” was above 60 µM.
